For one assay, the target named is PI3Kγ (Homo sapiens (Human), UniProt P48736). In words: TR-FRET enzymatic assay of PI3K isoforms, PI3Kγ. It counts as biochemical. Conditions: 2×Km ATP, PI3Kγ at 2 nM, 30 minutes at 25° C. Background: Time-resolved FRET reads energy transfer from a long-lived donor to a nearby acceptor.
In the next assay the target is PI3Kβ (Homo sapiens (Human), UniProt P42338). In words: TR-FRET enzymatic assay of PI3K isoforms, PI3Kβ. The assay is classed as biochemical. To be noted: for pIC50: TR-FRET, 2×Km ATP, 30 minutes at 25° C.; for PI3Kγ/PI3Kβ ratio: ratio of IC50 values, selectivity for PI3Kβ over PI3Kγ.
The next assay addresses PI3Kδ (Homo sapiens (Human), UniProt O00329). In words: TR-FRET enzymatic assay of PI3K isoforms, PI3Kδ. Conditions: read-out: PI3Kδ IC50, 2×Km ATP, 30 minutes at 25° C.

In US9499523B2, “Phosphatidylinositol 3-kinase inhibitors” (Gilead Sciences, Inc., priority 2014, dated 2016) one finds IC50 and PI3Kγ/PI3Kβ ratio data, which are given here for 19 molecules.

Structures are written as SMILES. pIC50: −log10 of the molar value.

As usually defined, the pIC50 is the negative decadic logarithm of the IC50, by convention in mol/L.

Sequence of PI3Kγ (P48736 whole entry, canonical isoform): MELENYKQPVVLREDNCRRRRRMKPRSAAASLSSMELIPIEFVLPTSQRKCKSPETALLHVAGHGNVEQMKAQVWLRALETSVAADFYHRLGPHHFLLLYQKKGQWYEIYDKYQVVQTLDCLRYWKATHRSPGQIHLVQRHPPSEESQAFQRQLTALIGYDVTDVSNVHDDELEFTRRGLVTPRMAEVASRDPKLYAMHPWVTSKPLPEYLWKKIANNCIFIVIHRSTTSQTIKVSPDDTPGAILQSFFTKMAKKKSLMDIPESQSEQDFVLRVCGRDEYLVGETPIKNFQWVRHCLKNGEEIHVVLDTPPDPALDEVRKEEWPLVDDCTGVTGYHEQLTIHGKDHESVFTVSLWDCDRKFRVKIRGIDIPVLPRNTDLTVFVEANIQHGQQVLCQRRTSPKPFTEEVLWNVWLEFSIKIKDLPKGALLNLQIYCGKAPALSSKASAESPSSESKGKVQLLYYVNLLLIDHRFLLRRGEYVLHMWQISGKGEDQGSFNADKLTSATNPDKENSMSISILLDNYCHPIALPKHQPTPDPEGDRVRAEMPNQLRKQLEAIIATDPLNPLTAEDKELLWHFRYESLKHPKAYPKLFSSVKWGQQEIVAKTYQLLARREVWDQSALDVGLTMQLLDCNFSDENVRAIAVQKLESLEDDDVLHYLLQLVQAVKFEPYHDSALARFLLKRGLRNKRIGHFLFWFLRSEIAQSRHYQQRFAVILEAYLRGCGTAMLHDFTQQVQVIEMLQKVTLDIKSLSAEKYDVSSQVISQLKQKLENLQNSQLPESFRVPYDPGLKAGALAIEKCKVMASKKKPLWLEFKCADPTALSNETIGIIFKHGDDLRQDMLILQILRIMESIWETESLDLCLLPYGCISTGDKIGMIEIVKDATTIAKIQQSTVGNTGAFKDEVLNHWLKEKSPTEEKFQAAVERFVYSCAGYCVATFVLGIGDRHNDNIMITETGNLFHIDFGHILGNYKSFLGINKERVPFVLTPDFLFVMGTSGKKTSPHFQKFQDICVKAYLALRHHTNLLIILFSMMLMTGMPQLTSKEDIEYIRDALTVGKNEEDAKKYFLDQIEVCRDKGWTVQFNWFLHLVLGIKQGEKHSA
Sequence of PI3Kβ (P42338 whole entry, canonical isoform): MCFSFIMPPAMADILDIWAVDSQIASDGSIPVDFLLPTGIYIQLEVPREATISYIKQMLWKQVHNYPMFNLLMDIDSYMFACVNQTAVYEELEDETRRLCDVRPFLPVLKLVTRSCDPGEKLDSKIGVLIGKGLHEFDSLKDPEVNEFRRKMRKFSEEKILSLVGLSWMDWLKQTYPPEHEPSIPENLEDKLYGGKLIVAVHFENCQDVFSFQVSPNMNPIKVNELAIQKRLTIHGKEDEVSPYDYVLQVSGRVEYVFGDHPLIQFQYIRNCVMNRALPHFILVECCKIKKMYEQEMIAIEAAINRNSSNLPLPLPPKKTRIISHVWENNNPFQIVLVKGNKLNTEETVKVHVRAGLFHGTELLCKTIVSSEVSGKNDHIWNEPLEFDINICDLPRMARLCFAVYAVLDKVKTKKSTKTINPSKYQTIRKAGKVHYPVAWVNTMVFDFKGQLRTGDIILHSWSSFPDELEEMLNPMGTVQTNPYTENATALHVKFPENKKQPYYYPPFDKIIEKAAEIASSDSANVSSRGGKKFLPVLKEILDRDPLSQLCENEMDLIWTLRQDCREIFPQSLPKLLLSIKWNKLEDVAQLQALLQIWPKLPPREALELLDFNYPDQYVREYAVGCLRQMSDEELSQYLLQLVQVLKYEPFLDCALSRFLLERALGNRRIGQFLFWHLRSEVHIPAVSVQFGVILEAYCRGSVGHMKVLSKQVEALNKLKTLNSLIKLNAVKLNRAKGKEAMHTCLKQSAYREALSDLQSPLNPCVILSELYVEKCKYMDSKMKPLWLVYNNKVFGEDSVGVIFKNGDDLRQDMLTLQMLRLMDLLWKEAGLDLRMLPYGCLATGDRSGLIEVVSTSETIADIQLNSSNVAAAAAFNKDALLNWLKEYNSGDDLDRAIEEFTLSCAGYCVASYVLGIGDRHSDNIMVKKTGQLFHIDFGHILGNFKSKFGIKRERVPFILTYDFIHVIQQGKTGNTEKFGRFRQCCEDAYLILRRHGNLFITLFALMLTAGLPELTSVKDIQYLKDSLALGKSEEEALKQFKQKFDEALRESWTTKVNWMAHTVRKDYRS
Sequence of PI3Kβ (P27986 whole entry partner, canonical isoform): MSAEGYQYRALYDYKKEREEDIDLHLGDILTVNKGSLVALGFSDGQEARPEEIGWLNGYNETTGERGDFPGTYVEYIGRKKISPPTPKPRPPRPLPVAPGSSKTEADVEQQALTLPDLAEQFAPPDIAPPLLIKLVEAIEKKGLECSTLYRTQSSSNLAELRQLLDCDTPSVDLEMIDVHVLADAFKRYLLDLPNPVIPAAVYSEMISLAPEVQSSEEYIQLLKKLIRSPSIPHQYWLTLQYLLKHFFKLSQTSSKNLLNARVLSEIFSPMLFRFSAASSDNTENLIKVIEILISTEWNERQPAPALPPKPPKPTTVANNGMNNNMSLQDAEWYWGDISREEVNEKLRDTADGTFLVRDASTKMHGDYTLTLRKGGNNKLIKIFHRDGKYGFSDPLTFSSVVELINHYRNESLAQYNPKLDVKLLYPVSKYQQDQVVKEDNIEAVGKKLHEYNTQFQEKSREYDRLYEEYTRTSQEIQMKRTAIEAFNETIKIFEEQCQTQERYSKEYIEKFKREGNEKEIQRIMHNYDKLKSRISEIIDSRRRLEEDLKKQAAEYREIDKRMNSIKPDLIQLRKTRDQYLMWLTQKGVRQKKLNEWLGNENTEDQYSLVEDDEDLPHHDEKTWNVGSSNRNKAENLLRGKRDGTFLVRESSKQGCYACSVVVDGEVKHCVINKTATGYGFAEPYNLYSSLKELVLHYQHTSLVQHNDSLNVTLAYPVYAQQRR
Sequence of PI3Kδ (O00329 whole entry, canonical isoform): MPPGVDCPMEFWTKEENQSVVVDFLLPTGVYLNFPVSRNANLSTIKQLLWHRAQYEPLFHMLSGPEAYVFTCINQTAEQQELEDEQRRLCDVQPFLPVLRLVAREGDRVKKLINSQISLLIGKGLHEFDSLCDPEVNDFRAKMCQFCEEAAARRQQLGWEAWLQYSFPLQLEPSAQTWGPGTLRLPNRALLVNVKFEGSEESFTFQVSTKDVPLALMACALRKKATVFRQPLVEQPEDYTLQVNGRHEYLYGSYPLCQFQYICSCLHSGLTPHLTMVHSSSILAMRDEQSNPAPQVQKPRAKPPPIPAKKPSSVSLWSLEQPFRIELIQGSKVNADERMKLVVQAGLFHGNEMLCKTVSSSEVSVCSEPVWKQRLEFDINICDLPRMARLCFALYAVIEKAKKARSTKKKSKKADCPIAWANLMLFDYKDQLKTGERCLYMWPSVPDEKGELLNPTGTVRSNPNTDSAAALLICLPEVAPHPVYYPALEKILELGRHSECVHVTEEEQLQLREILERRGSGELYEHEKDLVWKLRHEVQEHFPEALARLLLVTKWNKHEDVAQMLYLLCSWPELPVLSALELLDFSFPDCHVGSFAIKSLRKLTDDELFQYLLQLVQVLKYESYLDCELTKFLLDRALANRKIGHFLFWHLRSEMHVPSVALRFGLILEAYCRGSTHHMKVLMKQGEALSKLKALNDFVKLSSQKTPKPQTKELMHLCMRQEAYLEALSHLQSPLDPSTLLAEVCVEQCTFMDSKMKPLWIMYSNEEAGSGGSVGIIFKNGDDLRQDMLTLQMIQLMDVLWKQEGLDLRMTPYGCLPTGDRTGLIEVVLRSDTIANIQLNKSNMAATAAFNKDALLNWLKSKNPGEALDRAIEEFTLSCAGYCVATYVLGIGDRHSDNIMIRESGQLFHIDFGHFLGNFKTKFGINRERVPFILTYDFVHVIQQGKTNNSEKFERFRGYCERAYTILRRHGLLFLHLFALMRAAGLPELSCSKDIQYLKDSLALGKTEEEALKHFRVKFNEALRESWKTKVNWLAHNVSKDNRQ
Sequence of PI3Kδ (P27986 whole entry partner, canonical isoform): as the sequence (P27986 whole entry partner, canonical isoform) above
Protocol for PI3Kβ: (§1) The compounds of formula (I) were characterized for their enzymatic activity against the PI3K isoforms. The activities were measured using a time-resolved fluorescence resonance energy transfer (TR-FRET) assay. TR-FRET monitored the formation of 3,4,5-inositol triphosphate molecule that competed with fluorescently labeled PIP3 for binding to the GRP-1 pleckstrin homology domain protein.
(§2) Class I PI3K isoforms were expressed and purified as heterodimeric recombinant proteins. All assay reagents and buffers for the TR-FRET assay were purchased from Millipore. […] The reactions were terminated with a final concentration of 10 mM EDTA, 10 nM labeled-PIP3, and 35 nM Europium labeled GRP-1 detector protein before reading TR-FRET on an Envision plate reader (Ex: 340 nm; Em: 615/665 nm; 100 μs delay and 500 μs read window).
(§3) The results were normalized based on positive (1 μM wortmanin) and negative (DMSO) controls, and the IC50 values for PI3K α, β, δ and γ were calculated from the fit of the dose-response curves to a four-parameter equation.
Protocol for PI3Kγ: as §1, §2, §3
Protocol for PI3Kδ: as §1, §2, §3

As to `C[C@H](Nc1nc(N)nc(N)c1C#N)c1nc2c(F)ccc(Cl)c2c(=O)n1-c1cnc(N)cn1` [Compound 2, (S)-2,4-diamino-6-((1-(3-(5-aminopyrazin-2-yl)-5-chloro-8-fluoro-4-oxo-3,4-dihydroquinazolin-2-yl)ethyl)amino)pyrimidine-5-carbonitrile], the values for the pIC50 on PI3Kγ, against PI3Kβ and at PI3Kδ were 6.20, 8.36 and 8.46, respectively.
Regarding `Nc1cnc(-n2c([C@@H](Nc3ncnc(N)c3Cl)C3CC3)nc3cccc(Cl)c3c2=O)cn1` [Compound 21, (S)-2-(((6-Amino-5-chloropyrimidin-4-yl)amino)(cyclopropyl)methyl)-3-(5-aminopyrazin-2-yl)-5-chloroquinazolin-4(3H)-one], the pIC50 against PI3Kγ was less than 5.00; at PI3Kβ, 6.14.
With `C[C@H](Nc1nc(N)nc(N)c1Cl)c1nc2cccc(Cl)c2c(=O)n1-c1cnc(N)cn1` [Compound 7, (S)-3-(5-aminopyrazin-2-yl)-5-chloro-2-(1-((2,6-diamino-5-chloropyrimidin-4-yl)amino)ethyl)quinazolin-4(3H)-one], the pIC50 against PI3Kγ was 5.40; on PI3Kβ, 7.33; at PI3Kδ it was 7.62.
For `C[C@H](Nc1ncnc(N)c1C#N)c1nc2c(F)ccc(Cl)c2c(=O)n1-c1cnc(N)cn1` [Compound 3, (S)-4-amino-6-((1-(3-(5-aminopyrazin-2-yl)-5-chloro-8-fluoro-4-oxo-3,4-dihydroquinazolin-2-yl)ethyl)amino)pyrimidine-5-carbonitrile] the same measures were less than 5.00, 7.13 and 7.96.
Turning to `C[C@H](Nc1nc(N)nc(N)c1C#N)c1nc2cccc(Cl)c2c(=O)n1-c1ccccc1` [(S)-2,4-diamino-6-((1-(5-chloro-4-oxo-3-phenyl-3,4-dihydroquinazolin-2-yl)ethyl)amino)pyrimidine-5-carbonitrile, reference compound], the PI3Kγ/PI3Kβ ratio result at PI3Kβ is “less than 1”.
As to `C[C@H](Nc1ncnc2occc12)c1nc2c(F)ccc(Cl)c2c(=O)n1-c1cnc(N)cn1` [Compound 5, (S)-3-(5-amninopyrazin-2-yl)-5-chloro-8-fluoro-2-(1-(furo[2,3-d]pyrimidin-4-ylamino)ethyl)quinazolin-4(3H)-one], the pIC50 was less than 5.00 against PI3Kγ, 5.24 against PI3Kβ and 5.64 on PI3Kδ.
Regarding `N#Cc1c(N)nc(N)nc1N[C@H](c1nc2c(Cl)ccc(Cl)c2c(=O)n1-c1cnc(N)cn1)C1CC1` [Compound 10, (S)-2,4-diamino-6-(((3-(5-aminopyrazin-2-yl)-5,8-dichloro-4-oxo-3,4-dihydroquinazolin-2-yl)(cyclopropyl)methyl)amino)pyrimidine-5-carbonitrile], the values for the pIC50 on PI3Kγ, against PI3Kβ and at PI3Kδ were 5.51, 8.44 and 8.62, respectively.
For `N#Cc1c(N)nc(N)nc1N[C@H](c1nc2cccc(Cl)c2c(=O)n1-c1cnc(N)cn1)C1CC1` [Compound 9], the negative logarithm of the IC50 (pIC50) was 6.05 against PI3Kγ, 8.38 on PI3Kβ and 8.57 at PI3Kδ.
For the molecule `C[C@H](Nc1nc(N)nc(N)c1C#N)c1nc2c(Cl)ccc(Cl)c2c(=O)n1-c1cnc(N)cn1` [Compound 11, (S)-2,4-diamino-6-((1-(3-(5-aminopyrazin-2-yl)-5,8-dichloro-4-oxo-3,4-dihydroquinazolin-2-yl)ethyl)amino)pyrimidine-5-carbonitrile], the negative-log IC50 (pIC50) against PI3Kγ was 5.82; at PI3Kβ it was 8.74; on PI3Kδ it was 8.72.
For `C[C@H](Nc1ncnc2[nH]nnc12)c1nc2c(F)cccc2c(=O)n1-c1cnc(N)cn1` [Compound 4, (S)-2-(1-((3H-[1,2,3]triazolo[4,5-d]pyrimidin-7-yl)amino)ethyl)-3-(5-aminopyrazin-2-yl)-8-fluoroquinazolin-4(3H)-one] the same measures were less than 5.00, less than 5.00 and 5.57.
`C[C@H](Nc1nc(N)nc(N)c1C#N)c1nc2c(F)cc(F)cc2c(=O)n1-c1cnc(N)cn1` [Compound 15, (S)-2,4-Diamino-6-((1-(3-(5-aminopyrazin-2-yl)-6,8-difluoro-4-oxo-3,4-dihydroquinazolin-2-yl)ethyl)amino)pyrimidine-5-carbonitrile]: the negative-log IC50 (pIC50) against PI3Kγ is 5.82; at PI3Kβ, 8.01; at PI3Kδ it was 7.28.
For `C[C@H](Nc1nc(N)nc(C(F)F)c1C#N)c1nc2c(Cl)cc(F)cc2c(=O)n1-c1cnc(N)cn1` [Compound 14, (S)-2-amino-4-((1-(3-(5-aminopyrazin-2-yl)-8-chloro-6-fluoro-4-oxo-3,4-dihydroquinazolin-2-yl)ethyl)amino)-6-(difluoromethyl)pyrimidine-5-carbonitrile] the same measures were less than 5.00, 6.70 and 6.47.
For `C[C@H](Nc1nc(N)nc(N)c1C#N)c1nc2c(Cl)cc(F)cc2c(=O)n1-c1cnc(N)cn1` [Compound 17] the same measures were 5.31, 7.85 and 7.49.
With `C[C@H](Nc1nc(N)nc(N)c1C#N)c1nc2cccc(Cl)c2c(=O)n1-c1cccnc1` [Compound X, (S)-2,4-diamino-6-((1-(5-chloro-4-oxo-3-(pyridin-3-yl)-3,4-dihydroquinazolin-2-yl)ethyl)amino)pyrimidine-5-carbonitrile, reference compound], the PI3Kγ/PI3Kβ ratio on PI3Kβ was 0.6.
With `Nc1cnc(-n2c([C@@H](Nc3nc(N)nc(N)c3Cl)C3CC3)nc3c(Cl)ccc(Cl)c3c2=O)cn1` [Compound 12, (S)-3-(5-aminopyrazin-2-yl)-5,8-dichloro-2-(cyclopropyl((2,6-diamino-5-chloropyrimidin-4-yl)amino)methyl)quinazolin-4(3H)-one], the negative logarithm of the IC50 (pIC50) against PI3Kγ was less than 5.00; on PI3Kβ, 5.92; on PI3Kδ it was 7.01.
For `Nc1cnc(-n2c([C@@H](Nc3nc(N)nc(N)c3Cl)C3CC3)nc3cccc(Cl)c3c2=O)cn1` [Compound 8, (S)-3-(5-aminopyrazin-2-yl)-5-chloro-2-(cyclopropyl((2,6-diamino-5-chloropyrimidin-4-yl)amino)methyl)quinazolin-4(3H)-one] the same measures were less than 5.00, 6.72 and 7.62.
On to `C[C@H](Nc1nc(N)nc(N)c1Cl)c1nc2c(F)ccc(Cl)c2c(=O)n1-c1cnc(N)cn1` [Compound 1, (S)-3-(5-aminopyrazin-2-yl)-5-chlor-2-(1-((2,6-diamino-5-chloropyrimidin-4-yl)amino)ethyl)-8-fluoroquinazolin-4(3H)-one], for which the pIC50 against PI3Kγ is less than 5.00; against PI3Kβ, 7.27.
Turning to `C[C@H](Nc1nc(N)nc(N)c1C#N)c1nc2cccc(Cl)c2c(=O)n1-c1cnc(N)cn1` [Compound 6, (S)-2,4-diamino-6-((1-(3-(5-aminopyrazin-2-yl)-5-chloro-4-oxo-3,4-dihydroquinazolin-2-yl)ethyl)amino)pyrimidine-5-carbonitrile], the values for the pIC50 against PI3Kγ, against PI3Kβ and on PI3Kδ were 6.55, 8.70 and 8.70, respectively.
Turning to `C[C@H](Nc1nc(N)nc(N)c1Cl)c1nc2c(Cl)ccc(Cl)c2c(=O)n1-c1cnc(N)cn1` [Compound 13, (S)-3-(5-aminopyrazin-2-yl)-5,8-dichloro-2-(1-((2,6-diamino-5-chloropyrimidin-4-yl)amino)ethyl)quinazolin-4(3H)-one], the pIC50 against PI3Kγ is less than 5.00; on PI3Kβ it was 6.77; at PI3Kδ it was 7.51.
